Experimental data published in US11066369B2, “N-(pyridin-2-yl)pyridine-sulfonamide derivatives and their use in the treatment of disease” (Novartis AG, priority 2016, dated 2021).
Where a name gives a salt, the structure may show the parent alone. Read-outs that look alike come from different tables or passages of the source.

How the values were obtained:
[1] = target: T1, horseradish peroxidase (HRP) tagged delF508-CFTR (Homo sapiens, UniProt P13569, DEL508-508); experiment: Measurement of delF508-CFTR-HRP surface expression in CFBE41o- cells; format: cell-based; details: for Emax: read-out: DelF508-CFTR-HRP Amax %;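 for DelF508-CFTR-HRP Amax %: percent efficacy relative to reference corrector lumacaftor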
T1 construct: expressed in transfected cells
T1 sequence (P13569 with tags, fused parts or gaps DEL508-508): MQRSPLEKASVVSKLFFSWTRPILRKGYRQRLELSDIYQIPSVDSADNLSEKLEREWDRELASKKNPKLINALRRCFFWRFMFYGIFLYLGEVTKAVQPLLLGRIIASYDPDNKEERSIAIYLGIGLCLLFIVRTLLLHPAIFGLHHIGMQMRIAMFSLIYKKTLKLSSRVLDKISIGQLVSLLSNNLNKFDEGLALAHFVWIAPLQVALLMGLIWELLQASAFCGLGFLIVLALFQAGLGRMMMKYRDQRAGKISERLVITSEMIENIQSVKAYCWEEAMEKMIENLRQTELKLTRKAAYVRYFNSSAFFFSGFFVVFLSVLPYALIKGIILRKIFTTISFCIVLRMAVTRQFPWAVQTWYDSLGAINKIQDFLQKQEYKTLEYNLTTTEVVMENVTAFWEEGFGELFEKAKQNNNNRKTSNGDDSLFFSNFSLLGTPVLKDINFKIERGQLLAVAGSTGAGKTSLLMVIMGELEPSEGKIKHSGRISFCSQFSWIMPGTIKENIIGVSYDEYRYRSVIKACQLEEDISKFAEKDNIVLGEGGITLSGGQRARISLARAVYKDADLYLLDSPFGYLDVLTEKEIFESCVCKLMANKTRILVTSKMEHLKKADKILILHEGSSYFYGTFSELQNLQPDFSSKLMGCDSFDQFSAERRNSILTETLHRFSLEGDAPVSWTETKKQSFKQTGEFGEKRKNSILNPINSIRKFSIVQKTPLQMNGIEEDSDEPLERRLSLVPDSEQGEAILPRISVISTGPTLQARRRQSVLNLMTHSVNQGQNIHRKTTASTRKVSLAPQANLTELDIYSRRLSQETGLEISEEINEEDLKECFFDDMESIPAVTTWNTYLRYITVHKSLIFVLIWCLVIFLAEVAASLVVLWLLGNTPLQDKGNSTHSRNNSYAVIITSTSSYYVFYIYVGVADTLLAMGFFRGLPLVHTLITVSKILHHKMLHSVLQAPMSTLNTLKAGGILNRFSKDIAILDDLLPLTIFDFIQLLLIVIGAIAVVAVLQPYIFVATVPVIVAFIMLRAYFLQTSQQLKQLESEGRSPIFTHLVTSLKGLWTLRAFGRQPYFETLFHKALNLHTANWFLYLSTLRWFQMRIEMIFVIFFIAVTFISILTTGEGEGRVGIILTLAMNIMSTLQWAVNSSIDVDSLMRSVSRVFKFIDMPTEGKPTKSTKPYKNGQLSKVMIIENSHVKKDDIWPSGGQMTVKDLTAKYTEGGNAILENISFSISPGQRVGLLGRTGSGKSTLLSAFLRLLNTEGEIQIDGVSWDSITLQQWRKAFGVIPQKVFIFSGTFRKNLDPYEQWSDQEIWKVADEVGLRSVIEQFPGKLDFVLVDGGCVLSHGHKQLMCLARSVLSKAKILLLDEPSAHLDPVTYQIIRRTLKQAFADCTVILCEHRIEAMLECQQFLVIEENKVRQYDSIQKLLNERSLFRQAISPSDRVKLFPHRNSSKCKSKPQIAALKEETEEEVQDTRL
Summary of the method: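 CFBE41o- bronchial epithelial cells stably expressing delF508-CFTR with HRP in the fourth extracellular loop; expression induced 48h with 500 ng/mL doxycycline, then compounds added (top 10 μM, 10-point 3-fold series, ≤0.5% DMSO) for 24h at 37° C. Surface HRP measured by luminescence with cell-impermeant substrate; EC50 from logistic fit of triplicates, plate-normalized to lowest concentration; efficacy also relative to a reference corrector.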

[2] = target: T2, delF508-CFTR (Homo sapiens, UniProt P13569, DEL508-508); experiment: Measurement of delF508-CFTR functional activity in primary human bronchial epithelial cells (HBECs) using Multi-Transepithelial Clamp Circuit (MTECC-24) assay; format: cell-based; details: primary CF HBECs; for MTECC24 CFHBEC- Amax %: test compound added 24h before assay plus potentiator, relative to reference combination (2 μM corrector + 0.5 μM potentiator); for EC50: test compound added 24h before assay, in the presence of potentiator, mean of at least two replicates, read-out: MTECC24 CFHBEC- EC50
T2 construct: functional activity of the CFTR channel (Chloride ion transport) in patient derived primary human bronchial epithelial cells; host or cells: patient-derived primary human bronchial epithelial cells (delF508-CFTR)
T2 sequence (P13569 with tags, fused parts or gaps DEL508-508): as above
Source text: [formula] Measurement of delF508-CFTR Functional Activity in Primary Human Bronchial Epithelial Cells (HBECs) Using Multi-Transepithelial Clamp Circuit (MTECC-24) Assay
This assay measures the functional activity of the CFTR channel (Chloride ion transport) in patient derived primary human bronchial epithelial cells with forskolin activation and in the presence of the CFTR corrector/potentiator combo.
Primary human delF508-CFTR bronchial epithelial cells were purchased from Asterand and cultured according to previously established methods (Fulcher et al. (2005) Methods Mol Med 107: 183-206). Briefly, vendor supplied cells were rapidly defrosted and added to a T175 flask in 50 mL growth media (Lonza BEBM media with Lonza BEGM singlequots). Media was replaced after 24h and then cells were fed every other day until cells were 80-90% confluent, at which point cells were cryopreserved. These P1 vials were thawed at 37° C. as needed and added to T175 flasks in 50 mL growth media at 5×10^5 cells/flask. Media was replaced after 24h, and then cells were fed every other day until 80-90% confluent. Cells were lifted with 5 mL accutase at 37° C. for 5 minutes, centrifuged at 1000 rpms for 5 min (300 g), and resuspended in differentiation media (50% BEBM in DMEM, BEGM singlequots, all trans retinoic acid (5×10^−8M)). Cells were then counted and cell suspension was added to collagen coated inserts at 3×10^4 cells/insert in 0.15 mL with 0.5 mL differentiation media on the basolateral side.
Apical and basolateral media were replaced on alternate days, and following day 7 (or when confluent plus 2 days), air liquid interface was established for approximately two weeks by removal of apical media. One day prior to use on the MTECC24 system (EP-Devices, EP Design, Belgium), 0.15 mL of warmed (37° C.) PBS was added to the apical surface of the cultures and returned to humidifier (37° C., 5% CO2 incubator) for 30 min before aspirating the apical surface to remove any mucus.
Compound treatments were then prepared. Compound dilutions, typically a 10 point concentration response with 1 in 3 dilution steps, were made in 100% DMSO before dilution 1 in 1000 into differentiation medium with a final DMSO concentration of 0.1% or 0.2% for the study. Compound containing medium was then transferred into the wells of a 24 well plate at 0.5 mL per well and warmed for 30 min in a 37° C. incubator prior to transferring washed inserts into the compound containing plates. Cells were incubated in compound containing medium (basolateral only) for 24h prior to measurement in the MTECC24 system.
Following 24 hr treatment, compound dilutions were prepared again, diluted 1 in 1000 into 37° C. assay medium (F-12 Coon's modified, 20 mM HEPES pH7.4 with TRIS Base, No FCS or bicarbonate). Cells which were treated for 24h with test compound were then transferred into plates containing 0.75 mL compound treatment in assay medium (basolateral) and 0.25 mL of the compound containing assay medium was added to the apical surface. The plates were then transferred to the heated plate compartments of the MTECC24 system for 45 min prior to measurements (this can also be done in a non-CO2 37° C. humidified incubator). Basolateral temperature should not exceed 36.5° C. and apical temperature should be approximately 35.5° C.
Modulators were added sequentially as follows while the MTECC24 instrument recorded the equivalent short circuit current (Ieq):
Prior to dilution into F-12 medium the stocks are as follows:
Amiloride stock is 10 mM in H2O
Forskolin Stock is 10 mM in 100% DMSO
(S)-3-amino-6-methoxy-N-(3,3,3-trifluoro-2-hydroxy-2-methylpropyl)-5-(trifluoromethyl)picolinamide is 0.5 mM stock in 100% DMSO
INH-172 (4-[[4-Oxo-2-thioxo-3-[3-trifluoromethyl)phenyl]-5-thiazolidinylidene]methyl]benzoic acid) stock is 30 mM in 100% DMSO
The data was normalized using the median signal from wells treated with 0.1% DMSO as a baseline. […]

[3] = delF508-CFTR-HRP surface expression, CFBE41o- cells
[4] = delF508-CFTR-HRP surface expression, CFBE41o- cells, read-out: DelF508-CFTR-HRP EC50
[5] = CFBE41o- cells, mean of at least two replicates, read-out: DelF508-CFTR-HRP EC50
[6] = CFBE41o- cells, surface expression Amax

Row | SMILES | Emax [1, 3] [%] | EC50 [1, 4] [nM] | MTECC24 CFHBEC- Amax % [2] [%] | EC50 [2] [nM] | EC50 [1, 5] [nM] | Emax [1, 6] [%] | EC50 [1] [nM]
1 | Cc1ccccc1-c1nc(NS(=O)(=O)c2cccc(OC3CC(C(=O)O)C3)n2)ccc1C(F)(F)F (mixture of isomers) [Example 331, 3-((6-(N-(6-(o-tolyl)-5-(trifluoromethyl)pyridin-2-yl)sulfamoyl)pyridin-2-yl)oxy)cyclobutanecarboxylic Acid] | 218 | 1520 | 67.4 | 64.9 |  |  | 
2 | CO[C@@H]1CNCC[C@H]1Nc1cccc(S(=O)(=O)Nc2ccc(C(F)(F)F)c(-c3ccccc3C)n2)n1 (racemic) [Example 116, 6-(((3R,4R)-3-methoxypiperidin-4-yl)amino)-N-(6-(o-tolyl)-5-(trifluoromethyl)pyridin-2-yl)pyridine-2-sulfonamide Hydrochloride] | 370 | 3160 | 60.8 | 107 |  |  | 
3 | Cc1ccccc1-c1nc(NS(=O)(=O)c2cccc(N[C@@H]3CCOC[C@@H]3O)n2)ccc1C(F)(F)F (racemic) [Example 275, rac-6-{[(3RS,4RS)-3-hydroxyoxan-4-yl]amino}-N-[6-(2-methylphenyl)-5-(trifluoromethyl)pyridin-2-yl]pyridine-2-sulfonamide] |  | 1070 | 77.9 | 1.5 |  |  | 
4 | Cc1ccccc1-c1nc(NS(=O)(=O)c2cccc(N[C@@H]3COCC[C@@H]3O)n2)ccc1C(F)(F)F (racemic) [Example 280, rac-6-{[(3RS,4SR)-4-hydroxyoxan-3-yl]amino}-N-[6-(2-methylphenyl)-5-(trifluoromethyl)pyridin-2-yl]pyridine-2-sulfonamide] | 844 | 1960 | 96.3 | 2.5 |  |  | 
5 | Cc1cccc(C)c1-c1nc(NS(=O)(=O)c2cccc(O[C@@H]3COC[C@@H]3O)n2)ccc1Cl (racemic) [Example 290, rac-N-[5-chloro-6-(2,6-dimethylphenyl)pyridin-2-yl]-6-{[(3R,4S)-4-hydroxyoxolan-3-yl]oxy}pyridine-2-sulfonamide] | 616 | 1440 | 71.4 | 46.6 |  |  | 
6 | Cc1ccccc1-c1nc(NS(=O)(=O)c2cccc(O[C@@H]3COC[C@@H]3O)n2)ccc1C(F)(F)F (racemic) [Example 291, rac-6-{[(3RS,4SR)-4-hydroxyoxolan-3-yl]oxy}-N-[6-(2-methylphenyl)-5-(trifluoromethyl)pyridin-2-yl]pyridine-2-sulfonamide] | 496 | 2500 | 73.6 | 13.3 |  |  | 
7 | Cc1ccccc1-c1nc(NS(=O)(=O)c2cccc(O[C@@H]3COCC3(C)O)n2)ccc1C(F)(F)F (mixture of isomers) [Example 293, rac-6-{[(3RR,4SR)-4-hydroxy-4-methyloxolan-3-yl]oxy}-N-[6-(2-methylphenyl)-5-(trifluoromethyl)pyridin-2-yl]pyridine-2-sulfonamide] | 590 | 1960 | 78.6 | 22 |  |  | 
8 | Cc1ccccc1-c1nc(NS(=O)(=O)c2cccc(N[C@@H]3CCNC[C@@H]3F)n2)ccc1C(F)(F)F (relative stereo) [Example 117, 6-(((3S,4R)-3-fluoropiperidin-4-yl)amino)-N-(6-(o-tolyl)-5-(trifluoromethyl)pyridin-2-yl)pyridine-2-sulfonamide Hydrochloride] | 264 | 2780 | 74.7 | 33.1 |  |  | 
9 | Cc1ccccc1-c1nc(NS(=O)(=O)c2cccc(N[C@@H]3CCOC[C@@H]3O)n2)ccc1C(F)(F)F (single isomer, unassigned) [Example 276] | 523 | 3200 | 84.7 | 18.5 |  |  | 
10 | Cc1ccccc1-c1nc(NS(=O)(=O)c2cccc(N[C@H]3CCOC[C@H]3O)n2)ccc1C(F)(F)F (single isomer, unassigned) [Example 277] | 817 | 2010 | 85.1 | 4.6 |  |  | 
11 | Cc1ccccc1-c1nc(NS(=O)(=O)c2cccc(N[C@@H]3COCC[C@@H]3O)n2)ccc1C(F)(F)F (single isomer, unassigned) [Example 281] | 680 | 2010 | 85.9 | 3.7 |  |  | 
12 | Cc1ccccc1-c1nc(NS(=O)(=O)c2cccc(N3CC[C@@H](N)[C@@H](F)C3)n2)ccc1C(F)(F)F [Example 111, 6-((3S,4R)-4-amino-3-fluoropiperidin-1-yl)-N-(6-(o-tolyl)-5-(trifluoromethyl)pyridin-2-yl)pyridine-2-sulfonamide Hydrochloride] |  |  | 59.5 | 31.8 |  |  | 
13 | CCCC1(C(=O)O)CCCN(c2cccc(S(=O)(=O)Nc3ccc(Cl)c(-c4ccccc4C)n3)n2)C1 (centres unmarked) [Example 456, 1-(6-(N-(5-chloro-6-(o-tolyl)pyridin-2-yl)sulfamoyl)pyridin-2-yl)-3-propylpiperidine-3-carboxylic Acid] |  |  |  |  | 1360 | 465 | 
14 | CCCC1(C(=O)O)CCCN(c2cccc(S(=O)(=O)Nc3ccc(Cl)c(-c4c(C)cccc4C)n3)n2)C1 (centres unmarked) [Example 457, 1-(6-(N-(5-chloro-6-(2,6-dimethylphenyl)pyridin-2-yl)sulfamoyl)pyridin-2-yl)-3-propylpiperidine-3-carboxylic Acid] |  |  |  |  | 622 | 702 | 
15 | CCCC1(C(=O)O)CCCN(c2cccc(S(=O)(=O)Nc3ccc(C(F)(F)F)c(-c4ccccc4C)n3)n2)C1 (centres unmarked) [Example 458, 3-propyl-1-(6-(N-(6-(o-tolyl)-5-(trifluoromethyl)pyridin-2-yl)sulfamoyl)pyridin-2-yl)piperidine-3-carboxylic Acid] |  |  |  |  | 1600 | 639 | 
16 | Cc1ccccc1-c1nc(NS(=O)(=O)c2cccc(N3[C@@H]4CC[C@H]3[C@@H](C(=O)O)C4)n2)ccc1C(F)(F)F [Example 462, (1S,2S,4R)-7-(6-(N-(6-(o-tolyl)-5-(trifluoromethyl)pyridin-2-yl)sulfamoyl)pyridin-2-yl)-7-azabicyclo[2.2.1]heptane-2-carboxylic Acid] |  |  |  |  |  | 108 | 2930
17 | Cc1ccccc1-c1nc(NS(=O)(=O)c2cccc(N3C[C@H](C(=O)O)CC[C@@H]3C)n2)ccc1C(F)(F)F [Example 464] |  |  |  |  | 2430 | 816 | 
18 | Cc1cccc(C)c1-c1nc(NS(=O)(=O)c2cccc(N3CCC[C@@](C)(C(=O)O)C3)n2)ccc1C(F)(F)F [Example 465, (R)-1-(6-(N-(6-(2,6-dimethylphenyl)-5-(trifluoromethyl)pyridin-2-yl)sulfamoyl)pyridin-2-yl)-3-methylpiperidine-3-carboxylic Acid] |  |  |  |  | 1730 |  | 
